System: CRE-driven luciferase
Experiment: CRE-luciferase reporter mice, in vivo brain luminescence
Details: 4 hours after IP 1.68 mg rolipram and 0.84 mg forskolin given together
Description: Transgenic mice expressing firefly luciferase under the control of a cyclic AMP response element (CRE) can be used. Under conditions of elevated cyclic AMP (cAMP) or other mechanisms that activate the transcription factor CRE Binding Protein 1 (CREB), cells in these mice can express luciferase, which can be measured in whole animal luminescence instrumentation (IVIS imager) after IV dosage with a luciferin formulated for animal use. Mice can be validated to express the transgene under proper response element control by dosing these mice with forskolin and rolipram, two drugs that stimulate neuronal cAMP production and inhibit its degradation (respectively). […]
Under conditions of elevated cyclic AMP (cAMP) or other mechanisms that activate the transcription factor CRE Binding Protein 1 (CREB), cells in these mice express luciferase, which are measured in whole animal luminescence instrumentation (IVIS imager) after IV dosage with a luciferin formulated for animal use. […]
Luminescence was measured in anesthetized mice on a Xenogen IVIS instrument with a 1 min exposure. […] For the test peptides for comparison, identical regions of interest encompassing the entire brain were draw and quantified using LivingImage software (version 4.0, PerkinElmer, FIG. 16). […]
Transgenic Mice were first dosed with luciferin and luminescence was measured (“unstimulated”).

COc1ccc(C2CNC(=O)C2)cc1OC1CCCC1 (stereo not shown) [rolipram]
CRE-Luc brain luminescence, positive control: high levels of luminescence

Source: patent US20250326866A1, “TRANSFERRIN RECEPTOR TARGETING PEPTIDE OLIGONUCLEOTIDE COMPLEXES AND METHODS OF USE THEREOF” (Blaze Bioscience, Inc., priority 2021, published 2025)
